Earlier results as cited in patent US9089677B2, “Transcutaneous multimodal delivery system (TMDS)” (The Regents of the University of California, priority 2011, dated 2015).
Like-named read-outs stand apart in the source and are kept apart here.

What was measured:
fibroblasts = conditions: cited from earlier work
keratinocytes = conditions: cited from earlier work
[1] = test system: fungal subspecies (e.g., Candida albicans or glabrata as well as Mucor and Aspergillus); conditions: time kill-kinetic; cited from earlier work
[2] = test system: keratinocyte and fibroblast; conditions: 10% solution; cited from earlier work
[3] = up to 3 mg/kg subcutaneously or intravenously in mice, rats, and monkey; cited from earlier work
[4] = diabetic rodent wounds; cited from earlier work
[5] = full thickness pig burn wounds; cited from earlier work
[6] = test system: normal rat kidney fibroblast (NRK, clone 49F); conditions: NRK fibroblast proliferation; cited from earlier work

## NCc1ccc(S(N)(=O)=O)cc1 [MA, mafenide acetate]
fibroblasts
  lowest dose with reported in vitro toxicity: 0.1%
keratinocytes
  lowest dose with reported in vitro toxicity: 0.85%

## O=[N+]([O-])[O-].[Ag+] [silver nitrate]
[1]
  antimicrobial activity against fungal subspecies: activity for only C. albicans
[2]
  keratinocyte and fibroblast toxicity: keratinocyte and fibroblast toxicity

## becaplermin: recombinant human PDGF (rhPDGF)-BB homodimer
[3]
  acute toxicity and mortality: no significant acute toxicity or any mortality
[4]
  granulation tissue formation: significantly increased granulation tissue formation
  reepithelialization: did not promote faster reepithelialization
[5]
  granulation tissue formation: significantly increased granulation tissue formation
  reepithelialization: did not promote faster reepithelialization
[6]
  half maximal activity: 0.5 ng/mL
